# From publication PMC4349456, “Automated genomic context analysis and experimental validation platform for discovery of prokaryote transcriptional regulator functions” (BMC Genomics, 2014)
# Molecular target: T1, Bxe_B3018 (MgxR)
# T1 construct: GST-tagged (N-terminal, pGEX-KG / pGEX-T2), tag kept; expressed in Arctic Express cells; GSTrap and Superdex 200 purified
# Assay: fluorescence anisotropy, collapse of complex with fluorescein-labelled DNA operator
# Parameters: species or system Paraburkholderia xenovorans
# Settings: apparent, from loss of DNA operator binding; 250 nM GST-Bxe_B3018, 1 nM DOS; pH 7.5, 30 °C, 1 mM MgCl2, 1 mM DTT
row,Kd [µM],Structure (SMILES)
1,2600 ± 200,"CC(=O)CN(C)C [N,N-dimethylaminoacetone]"
2,2100 ± 200,"CC(=O)C=O [Mgx, methylglyoxal]"
3,2100 ± 400,"CC(=O)CN [Aa, aminoacetone]"
